Assay results: US9579364B2, “Methods for treating benign prostatic hypertrophy (BPH)” (New York University, priority 2002, dated 2017)
Marks after values point to notes of the source that are not given here. Bridge positions count the residues as written; N and C are the ends. Square brackets hold non-standard residues; d marks the D form. Peptide text beside a SMILES is read from it. dDab = NCC[C@@H](N)C(=O)O

How the values were obtained:
[1] = system: prostate of castrated IGF-I^(−/−) null male mice; test: Morphometry of histological prostate sections, castrated IGF-I(-/-) null male mice treated 7 days; assay type: in vivo
Procedure: Groups of castrated IGF-I^(−/−) null male mice were treated with either vehicle, testosterone in silastic capsules, des(1-3) IGF-I by an infusion through an Alzet pump containing 20 μg per pump, or the combination of testosterone and IGF-I for a period of 7 days.
In order to determine which specific structure was affected by which hormone, entire urogenital complexes were embedded in paraffin blocks, including the prostate glands, coagulating glands, seminal vesicles, urethra, urinary bladder attached to parts of the ureter, vas deferens, and ampullary glands. These were carefully sectioned such that the areas of prostate development could be analyzed.
The prostates were then removed, fixed and examined histologically. Morphometric analysis was carried on 30 cross sections of the prostate taken from five different serial sections. Changes in the area of the lumen, epithelial layer and fibromuscular layer were determined. These counts were performed using a Provis ×70 microscope (Olympus) attached to an Olympus DP10 digital camera. Images were taken using a 20× apochromate objective and were captured digitally at a resolution of 386 pixels. Data were tested for statistical significance using the SPSS statistical computer program (SPSS, Inc., Chicago, Ill.). Since assumptions for a parametric test were not valid (Kolmogorov-Sminov p<0.05), all data were evaluated by Kruskall-Wallis analysis of variance and the Mann-Whitney U test as a multiple comparison method.

IGF-I receptor = IGF-I receptor immunopositive cells in prostate elements; assay type: in vivo
[2] = system: prostate of IGF-I^(−/−) null male mice; test: Restoration of prostate development in IGF-I(-/-) null male mice; assay type: in vivo
Text: That IGF-I was also found to be essential for full prostate development was shown in a series of experiments employing IGF-I^(−/−) null male mice.

[3] = system: prostate of castrated IGF-I^(−/−) male mice; test: Prostate glandular tree development, castrated IGF-I(-/-) male mice treated 28 days; assay type: in vivo; conditions: 28 days treatment
Procedure: These include transgenic mice overexpressing a GH antagonist (that binds to and inactivates GH receptors making the animals functionally deficient in GH), growth hormone releasing factor receptor (GHRH-R^−/−) knockout mice (Lit/Lit), and Ames (df/df) mice (Prop 1 Deficiency). Deficient prostate development in GH inhibitor overexpression animals was previously reported (see Ruan et al, Endocrinology 140:1984-1989, 1999). Analysis of development was determined by dissecting away the periprostatic fat and teasing the glandular structures from the connective tissue in a solution containing collagenase so that the entire glandular tree could be photographed for later structural analysis. Much the same as in the mice overexpressing the mutant growth hormone, the other GH deficient mice had significant impairment of prostate development (p<0.0002) including a reduction in the number of terminal duct tips (TDTs), the area of the prostate gland, the number of quaternary branches and the number of branch points (TABLE 3). Any differences in these GH deficient mice may in part be due to the fact that the different strains were not analyzed at exactly the same age (Lit/Lit 50 days old, Ames 47 days old and bGH transgenic 44 days of age). The n was also different which may have led to greater significance in the Lit/Lit mice.
To clearly differentiate between the effects of IGF-I and T on development of the prostate gland, hormone replacement experiments were conducted on IGF-I^(−/−) male mice that had been castrated. In addition to evaluating the effect of IGF-I and T on gland structure development described above, we also evaluated the relative effects of these hormones on development of the stromal compartment of the prostate and also on histology of the glandular compartment. This was accomplished by sectioning and staining the prostate to highlight aspects of development.
Castrated IGF-I^(−/−) male mice were treated with T (administered by silastic capsules embedded on the backs of animals, subcutaneously). Des (1-3) IGF-I (40 μg/pump) was also implanted subcutaneously.

[4] = system: probasin in epithelial cells of the prostate; test: Probasin immunostaining of prostate sections (FIG. 6); assay type: in vivo, mice; conditions: FIG. 6(i-l)
Text: FIG. 6 depicts the effect of IGF-1 and/or T on histological appearance of prostate glands during development. Sections are shown through prostate glands from control animals (a, e, i) and animals treated with T alone (b, f, j), IGF-I alone (c, g, k), and IGF-I plus T (d, h, i). […] (i-1) Probasin immunostaining, brown color in the epithelial cells of the prostate. Magnification ×400.
The relative effects of IGF-I and T on prostate development were also studied in histological sections of whole prostate. This allowed determination of such effects on glandular microstructure and the stromal compartment of the prostate.
FIG. 6 depicts sections through prostate glands from control animals (FIG. 6(a, e, i)), animals treated with T alone (FIG. 6(b, f, j)), IGF-I alone (FIG. 6(c, g, k)), and IGF-I plus T (FIG. 6(d, h, i)).

[5] = system: all five somatostatin receptor subtypes; conditions: cited from earlier work
[6] = cited from earlier work
[7] = system: prostate of intact 28 day old male mice; test: PQ401 or SS14 treatment of intact 28 day old male mice: prostate; assay type: in vivo
Procedure: To examine further the effect of various compounds on glandular and fibromuscular development of the prostate, somatostatin-14 (SS14, a native somatostatin) and an exemplary small molecule IGF-I receptor inhibitor PQ401 were assessed in a variety of animal models.
In a first experimental approach, the effect of treatment of intact 28 day old male mice with vehicle or PQ401 (a small molecule IGF-I receptor specific inhibitor) or somatostatin-14 (SS14; a native somatostatin) was evaluated. PQ401 and SS14 inhibit IGF-I action. For these experiments, N=5 mice per group. The results of these experiments are presented below in Tables 7-10: […]

IGF-IR signaling = conditions: chemical library screen; cited from earlier work
[8] = castrated IGF-I knockout male mice, 7 days treatment
[9] = castrated at 56 days, hormones for 7 days (Table 5)

C[C@]12CC[C@H]3[C@@H](CCC4=CC(=O)CC[C@@]43C)[C@@H]1CC[C@@H]2O [TESTOSTERONE, testosterone]
Area of prostatic component (mean values): Eptithelium [1, 8]: Eptithelium = 84,551.64 μm^2 | Area of prostatic component (mean values): Lumen [1, 8]: Lumen = 369,495.45 μm^2 | Area of prostatic component (mean values): Stroma (connective-muscle) [1, 8]: Stroma (connective-muscle) = 89,797.254 μm^2 | Area of prostatic components (mean values): Total [1, 8]: Total = 543,844.34 μm^2 | Percentage of area: Eptithelium [1, 8]: 15% | Percentage of area: Lumen [1, 8]: 69% | Percentage of area: Stroma (connective-muscle) [1, 8]: 16% | Mean area of prostatic component: Epithelium [1, 9]: 84 × 10^3 μm^2 | Mean area of prostatic component: Fibromuscular tissue [1, 9]: 89 × 10^3 μm^2 | Mean area of prostatic component: Lumen [1, 9]: 369 × 10^3 μm^2 | Mean section size [1, 9]: 543 × 10^3a μm^2 | percentage occupied: Epithelium [1, 9]: (15%)^a | percentage occupied: Fibromuscular tissue [1, 9]: (16%)^b | percentage occupied: Lumen [1, 9]: (69%)^a | % IGF-I receptor immunopositive cells, epithelium (IGF-I receptor; prostate epithelium): 0% | % IGF-I receptor immunopositive cells, fibromuscular (IGF-I receptor; prostate fibromuscular elements): 95 ± 0.4% | restoring impaired prostate development [2]: partially but significantly restored | 4°- branching, ventral prostate [3]: 8.0 ± 0.6 ^a | Area, dorsal prostate [3]: 0.15 ± 0.01 ^a cm^2 | Area, ventral prostate [3]: 0.16 ± 0.01 ^a cm^2 | Branch Points, ventral prostate [3]: 12.0 ± 1.2 ^ | Terminal Duct Tips, dorsal prostate [3]: 17.0 ± 1.2 ^a | Terminal Duct Tips, ventral prostate [3]: 16.3 ± 1.2 ^ | Width of TDTs, dorsal prostate [3]: 0.227 ± 0.003 ^b mm | Width of TDTs, ventral prostate [3]: 0.236 ± 0.003 ^b mm | probasin immunostaining in the epithelial cells of the prostate [4]: scattered number of probasin immunopositive epithelial cells

C[C@@H](O)[C@@H]1NC(=O)[C@H](CCCCN)NC(=O)[C@@H](Cc2c[nH]c3ccccc23)NC(=O)[C@H](Cc2ccccc2)NC(=O)[C@H](Cc2ccccc2)NC(=O)[C@H](CCCNC(=N)N)NC(=O)[C@H](NC(=O)[C@@H](N)Cc2ccc(O)cc2)CCNC(=O)[C@H](Cc2ccccc2)NC1=O [KE108] (H-Y[dDab]RFF[dW]KTF; lactam 2-C)
affinity for all five somatostatin receptor subtypes [5]: extremely high affinity | stability in human serum [6]: stable for several hours

COc1ccc(Cl)cc1NC(=O)Nc1cc(C)nc2ccccc12 [PQ401]
area of the Longitudinal muscle ([7]; 28 day old male mice, controls 0.939): 0.868 mm^2 | total area of the Circular muscle ([7]; 28 day old male mice, controls 1.322): 0.789 mm^2 | % Reduction of prostate weight ([7]; intact 28 day old male mice, vs 28 day control): 31% | prostate weight ([7]; intact 28 day old male mice, control 26.8 ± 1.0, p < 0.0001): 18.4 ± 0.5 mg | inhibition of IGF-IR signaling (IGF-IR signaling): potent inhibitor
